Measurements as given in ChEMBL document CHEMBL1201862, “PubChem BioAssay data set” (2004).
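Dose response: 5 concentrations. Exposure: 48 h. Format: 96-well plates. Endpoint: linear interpolation; highest concentration if not reached. GI50: concentration for 50% inhibition of growth.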 Calls of active or inactive are those of the source. Rule as the data show it: active = GI50 up to about 1.1 µM and inactive = higher.

Columns and labels:
Assay in all cases: inhibition of tumour cell growth, NCI panel, 48 h
[1] = tested on: MCF7
[2] = tested on: HCT-116
[3] = tested on: SN12C
[4] = tested on: NCI-H23
[5] = tested on: TK-10
[6] = tested on: SK-MEL-2
[7] = tested on: K562
[8] = tested on: SK-MEL-28
[9] = tested on: ACHN
[10] = tested on: RPMI-8226
[11] = tested on: UACC-257
[12] = tested on: LOX IMVI
[13] = tested on: 786-0
[14] = tested on: UACC-62
[15] = tested on: SF-539
[16] = tested on: IGROV-1
[17] = tested on: NCI/ADR-RES
[18] = tested on: SF-295
[19] = tested on: OVCAR-3
[20] = tested on: SNB-19

Measured: GI50

CC(N)(/C=C/c1ccccc1)C(=O)O (stereo not given)
inactive: [1] > 100 µM | [2] > 100 µM | [3] > 100 µM | [4] > 100 µM | [5] > 100 µM | [6] > 100 µM | [7] > 100 µM | [8] > 100 µM | [9] > 100 µM | [10] > 100 µM | [11] > 100 µM | [12] > 100 µM | [13] > 100 µM | [14] > 100 µM | [15] > 100 µM | [16] > 100 µM | [17] > 100 µM | [18] > 100 µM | [19] > 100 µM | [20] > 100 µM

O=S(=O)(Nc1ccc2ccc3cccc4ccc1c2c34)c1ccccc1
inactive: [1] 43.4 µM | [2] 30.8 µM | [3] 15 µM | [4] 96.6 µM | [5] 38.2 µM | [6] 70.5 µM | [7] 6.7 µM | [8] > 100 µM | [9] 36.1 µM | [10] 6.34 µM | [11] 58.7 µM | [12] 40.6 µM | [13] 29 µM | [14] 8.95 µM | [15] 25.6 µM | [16] 18.7 µM | [17] 35.1 µM | [18] 10.4 µM | [19] 8.26 µM | [20] 85.5 µM

NCC1OC(n2cnc3c(N)ncnc32)CC1O (stereo not given)
inactive: [1] > 100 µM | [2] > 100 µM | [3] > 100 µM | [4] > 100 µM | [5] > 100 µM | [6] > 100 µM | [7] > 100 µM | [8] > 100 µM | [9] > 100 µM | [10] > 100 µM | [11] > 100 µM | [12] > 100 µM | [13] > 100 µM | [14] > 100 µM | [15] > 100 µM | [16] > 100 µM | [17] > 100 µM | [18] > 100 µM | [19] > 100 µM | [20] > 100 µM

O=C1Nc2ccccc2/C1=C1/Nc2ccccc2/C1=N/OCCOCCO
inactive: [1] 1.99 µM | [3] 2.69 µM | [4] 3.07 µM | [5] 1.86 µM | [7] 5 µM | [8] 5.05 µM | [10] 3.47 µM | [11] 17.5 µM | [13] 2.48 µM | [14] 1.44 µM | [15] 2.88 µM | [17] 4.17 µM | [18] 3.1 µM | [19] 2.06 µM | [20] 6.52 µM
active: [2] 0.582 µM | [6] 0.644 µM | [9] 0.738 µM | [12] 0.869 µM | [16] 0.0836 µM

C[C@@H]1CCC2[C@@H](C)[C@H](O[C@H]3O[C@@H]4O[C@@]5(C)CCC6[C@H](C)CCC([C@H]3C)[C@]64OO5)O[C@@H]3O[C@@]4(C)CCC1[C@@]23OO4 (stereo not given in full)
active: [1] 0.0925 µM | [2] 0.0177 µM | [3] 0.186 µM | [4] 0.0415 µM | [5] 0.205 µM | [6] 0.401 µM | [7] 0.0202 µM | [9] 0.0953 µM | [10] 0.0127 µM | [11] 0.0912 µM | [12] 0.0258 µM | [13] 0.361 µM | [14] 0.0805 µM | [15] 0.264 µM | [16] 0.931 µM | [17] 0.192 µM | [18] 0.32 µM | [19] 0.408 µM
inactive: [8] 5.69 µM | [20] 3.17 µM
